Measured values from patent US20110190280A1, “Thiazole And Oxazole Kinase Inhibitors” (priority 2007, published 2011).
Where a name gives a salt, the structure may show the parent alone.

Experiments:
HT-29 tumor cells = test: Cell growth inhibition assay (CellTiter-Glo), HT-29; details: Homo sapiens, HT-29, 72 h, read-out: Activity in HT-29 Tumor Cells;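 also: ATP content read by luminescence as proxy for cell number, growth inhibition versus DMSO vehicle wells, 0.2% DMSO final, nine serial threefold compound dilutions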
Description: (§1) Cell Growth Inhibition Assays Human colon tumor cells (Colo205) were cultured in RPMI (Mediatech 50-020-PB) containing 10% FBS and 1% penicillin-streptomycin. […] Human melanoma cancer cells (A375-F11S) were cultured in RPMI (Mediatech 50-020-PB) containing 10% FBS, 1% sodium pyruvate, and 1% penicillin-streptomycin. Human colon cancer cells (HT-29) were cultured in high glucose DMEM (Mediatech 50-013-PB) containing 10% FBS and 1% penicillin-streptomycin. Human melanoma cancer cells (SK-MEL-3) were cultured in McCoy's 5A (50-025-PB) containing 15% FBS, and 1% penicillin-streptomycin. All cell lines were maintained at 37° C. in a humidified 5% CO2, 95% air incubator.
(§2) The next day, compounds were diluted as follows: For 96-well assays, 13.5 μl of compound in DMSO were diluted using nine (9) serial 1:3 dilutions of 4.5 μl in 9 μl of DMSO. Medium (270 μl/well of RPMI with 10% FBS and 1% penicillin-streptomycin) was added to the plates. Aliquots (7 μl) were added to cells in the final assay giving a final DMSO concentration of 0.2%. For 384-well assays, 15 μl of compound in DMSO were diluted using nine (9) serial 1:3 dilutions of 5 μl in 10 μl of DMSO, followed by a further dilution of 5 μl of compound with 95 μl of medium, of which 2 μl are added to cells in the final assay giving a final DMSO concentration of 0.2%. Cells were incubated at 37° C., 5% CO2 for 3 days.
(§3) Total ATP was measured (as a surrogate estimate of cell number) using CellTiter-Glo® (Promega G7571) reagent. Briefly, plates were removed from the incubator and allowed to equilibrate to room temperature for 30 minutes. CellTiter-Glo® (25 μl or 55 μl for 384-well or 96-well assays, respectively) reagent was added to each well and plates were shaken on an orbital plate shaker for 2 minutes. Plates were incubated without shaking for a further 30 minutes and read on an LJL Analyst GT reader in luminometer mode with an integration time of 0.5 seconds per well. Percent inhibition of cell growth was calculated relative to DMSO vehicle-treated control wells.

SK-MEL-28 tumor cells = test: Cell growth inhibition assay (CellTiter-Glo), SK-MEL-28; details: Homo sapiens, SK-MEL-28, 72 h, read-out: Activity in SK-MEL-28 Tumor Cells;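 also: luminescent total ATP as a proxy for cell number, threefold serial dilutions at 0.2% DMSO, percent growth inhibition versus DMSO vehicle control wells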
SK-MEL-3 tumor cells = test: Cell growth inhibition assay (CellTiter-Glo), SK-MEL-3; details: Homo sapiens, SK-MEL3, 72 h, read-out: Activity in SK-MEL-3 Tumor Cells;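 also: human melanoma cells grown with compound for 3 days in 0.2% DMSO, total ATP read by luminescence as proxy for cell number, growth inhibition versus DMSO-treated wells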
A375P tumor cells = test: Cell growth inhibition assay (CellTiter-Glo), A375P; details: Homo sapiens, 72 h, read-out: Activity in A375P Tumor Cells;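 also: total ATP luminescence used as proxy for cell number, serial threefold compound dilutions at 0.2% DMSO, growth inhibition expressed versus DMSO vehicle-treated wells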
B-Raf = B-Raf (Homo sapiens, UniProt P15056); test: B-Raf Accelerated MEK ATPase assay (BRAMA); format: biochemical; details: BRAMA enzyme assay; class by pIC50; read-out: B-Raf Activity
Description: Compounds of the present invention were tested for B-Raf […] inhibitory activity in a B-Raf Accelerated MEK ATPase assay (BRAMA). The BRAMA assay is a high sensitivity assay which measures an intrinsic MEK-mediated ATP hydrolysis uncoupled from downstream ERK phosphorylation by coupling the formation of ADP to NADH oxidation through the enzymes pyruvate kinase and lactate dehydrogenase. When ADP production is initiated by addition of catalytic amounts of an activated RAF enzyme and non-phosphorylated MEK, one observes robust ADP production concomitant with RAF-mediated phosphorylation of MEK. Specific details of the assay are disclosed in: C. Rominger, M. Schaber, E. May. Assay for B-Raf Activity Based on Intrinsic MEK ATPase Activity.

Colo205 tumor cells = test: Cell growth inhibition assay (CellTiter-Glo), Colo205; details: Homo sapiens, COLO 205, 72 h, read-out: Activity in Colo205 Tumor Cells;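 also: growth measured via total ATP luminescence (CellTiter-Glo) as a proxy for cell number, inhibition expressed against DMSO-treated control wells, 3-day exposure at 0.2% final DMSO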
Description: as §1, §2, §3

Chain of B-Raf (P15056 whole entry): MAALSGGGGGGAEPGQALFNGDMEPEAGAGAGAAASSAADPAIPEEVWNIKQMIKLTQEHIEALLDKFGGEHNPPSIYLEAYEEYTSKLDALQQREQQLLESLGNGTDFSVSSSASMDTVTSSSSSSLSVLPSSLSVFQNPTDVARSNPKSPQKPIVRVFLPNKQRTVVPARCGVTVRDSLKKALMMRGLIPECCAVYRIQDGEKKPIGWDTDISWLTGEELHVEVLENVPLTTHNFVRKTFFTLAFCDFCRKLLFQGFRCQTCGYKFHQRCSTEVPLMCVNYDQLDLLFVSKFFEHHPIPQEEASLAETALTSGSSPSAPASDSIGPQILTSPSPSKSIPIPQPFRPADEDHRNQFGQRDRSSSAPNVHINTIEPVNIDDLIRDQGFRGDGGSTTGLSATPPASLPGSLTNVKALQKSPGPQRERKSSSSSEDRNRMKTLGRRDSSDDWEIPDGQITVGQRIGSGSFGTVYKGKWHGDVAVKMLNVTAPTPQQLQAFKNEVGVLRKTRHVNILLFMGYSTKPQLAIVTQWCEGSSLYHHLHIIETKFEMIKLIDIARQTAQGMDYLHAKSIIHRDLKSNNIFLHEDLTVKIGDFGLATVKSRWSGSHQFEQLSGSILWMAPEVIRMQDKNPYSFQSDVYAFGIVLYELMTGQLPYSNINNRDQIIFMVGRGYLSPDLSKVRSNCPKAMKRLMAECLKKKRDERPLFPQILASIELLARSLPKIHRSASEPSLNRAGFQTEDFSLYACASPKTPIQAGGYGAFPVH

| Structure (SMILES) | IC50 (HT-29 tumor cells) [nM] | IC50 (SK-MEL-28 tumor cells) [nM] | IC50 (SK-MEL-3 tumor cells) [nM] | IC50 (A375P tumor cells) [nM] | IC50 (B-Raf) [nM] | IC50 (Colo205 tumor cells) [nM] |
| --- | --- | --- | --- | --- | --- | --- |
| CCNc1nc(-c2cc(OC)cc(OC)c2)c(-c2ccnc(Nc3cc(F)c(N4CCN(CCF)CC4)c(F)c3)n2)o1 [Example 94] | < 500 | 500 to 5000 | < 500 | 500 to 5000 | < 100 | < 500 |
| CCNc1nc(-c2cc(C)cc(OC)c2)c(-c2ccnc(Nc3ccc(N4CC[C@@H](F)C4)nc3)n2)o1 [Example 81] | 500 to 5000 | 500 to 5000 | 500 to 5000 | 500 to 5000 | < 100 | 500 to 5000 |
| CCNc1nc(-c2cc(OC)cc(OC)c2)c(-c2ccnc(Nc3ccc(N4CCN(CCOC)CC4)c(C(=O)O)c3)n2)o1 [Example 119] | 500 to 5000 | 500 to 5000 | 500 to 5000 | 500 to 5000 | < 100 | 500 to 5000 |
| CNc1nc(-c2cc(OC)cc(OC)c2)c(-c2ccnc(Nc3ccc(OCCN4CCCC4)c(Cl)c3)n2)s1 [Example 20, 4-[4-[3,5-Bis(methyloxy)phenyl]-2-(methylamino)-1,3-thiazol-5-yl]-N-(3-chloro-4-{[2-(1-pyrrolidinyl)ethyl]oxy}phenyl)-2-pyrimidinamine] | < 500 | < 500 | < 500 | < 500 | < 100 | < 500 |
| CCNc1nc(-c2ccc3c(c2)OCO3)c(-c2ccnc(Nc3ccc(OC4CCN(CCS(C)(=O)=O)CC4)c(F)c3)n2)s1 [Example 52, 4-[4-(1,3-Benzodioxol-5-yl)-2-(ethylamino)-1,3-thiazol-5-yl]-N-[3-fluoro-4-({1-[2-(methylsulfonyl)ethyl]-4-piperidinyl}oxy)phenyl]-2-pyrimidinamine] | < 500 | < 500 | < 500 | < 500 | < 100 | < 500 |
| CCNc1nc(-c2cc(OC)cc(OC)c2)c(-c2ccnc(Nc3ccc(OC4CCN(CCF)CC4)c(OC)c3)n2)o1 [Example 96] | 500 to 5000 | 500 to 5000 | 500 to 5000 | 500 to 5000 | < 100 | 500 to 5000 |
| CCNc1nc(-c2cc(OC)cc(OC)c2)c(-c2ccnc(Nc3ccc(N4CCN(CCS(C)(=O)=O)CC4)nc3)n2)s1 [Example 1, 4-[4-[3,5-Bis(methyloxy)phenyl]-2-(ethylamino)-1,3-thiazol-5-yl]-N-(6-{4-[2-(methylsulfonyl)ethyl]-1-piperazinyl}-3-pyridinyl)-2-pyrimidinamine] | < 500 | 500 to 5000 | < 500 | < 500 | < 100 | < 500 |
| CCNc1nc(-c2cc(OC)cc(OC)c2)c(-c2ccnc(Nc3ccc(N4CCN(CCS(C)(=O)=O)CC4)c(F)c3)n2)s1 [Example 6, 4-[4-[3,5-Bis(methyloxy)phenyl]-2-(ethylamino)-1,3-thiazol-5-yl]-N-(3-fluoro-4-{4-[2-(methylsulfonyl)ethyl]-1-piperazinyl}phenyl)-2-pyrimidinamine trifluoroacetate] | < 500 | 500 to 5000 | < 500 | < 500 | < 100 | < 500 |
| CCNc1nc(-c2cc(OC)ccn2)c(-c2ccnc(Nc3ccc(OCCN4CCCC4)c(Cl)c3)n2)s1 [Example 57, N-(3-Chloro-4-{[2-(1-pyrrolidinyl)ethyl]oxy}phenyl)-4-{2-(ethylamino)-4-[4-(methyloxy)-2-pyridinyl]-1,3-thiazol-5-yl}-2-pyrimidinamine] | < 500 | 500 to 5000 | < 500 | < 500 | < 100 | 500 to 5000 |
| CCNc1nc(-c2cc(OC)cc(OC)c2)c(-c2ccnc(Nc3ccc(N4CCOCC4)nc3)n2)o1 [Example 120] | 500 to 5000 | 500 to 5000 | 500 to 5000 | 500 to 5000 | < 100 | < 500 |
| CCNc1nc(-c2cc(OC)cc(OC)c2)c(-c2ccnc(Nc3ccc(O[C@H]4CCN(CCS(C)(=O)=O)C4)nc3)n2)s1 [Example 3, 4-[4-[3,5-Bis(methyloxy)phenyl]-2-(ethylamino)-1,3-thiazol-5-yl]-N-[6-({(3S)-1-[2-(methylsulfonyl)ethyl]-3-pyrrolidinyl}oxy)-3-pyridinyl]-2-pyrimidinamine] | < 500 | < 500 | < 500 | < 500 | < 100 | < 500 |
| CCNc1nc(-c2cc(OC)cc(OC)c2)c(-c2ccnc(Nc3cc(F)c(OC4CCN(CCS(C)(=O)=O)CC4)c(F)c3)n2)o1 [Example 90] | < 500 | < 500 | < 500 | 500 to 5000 | < 100 | < 500 |
| COc1cc(OC)cc(-c2nc(NC3CC3)sc2-c2ccnc(Nc3ccc4c(c3)CN(C)CC4)n2)c1 [Example 15, N-{4-[4-[3,5-Bis(methyloxy)phenyl]-2-(cyclopropylamino)-1,3-thiazol-5-yl]-2-pyrimidinyl}-2-methyl-1,2,3,4-tetrahydro-7-isoquinolinamine] | 500 to 5000 | 500 to 5000 | < 500 | 500 to 5000 | < 100 | 500 to 5000 |
| CCNc1nc(-c2cc(C)cc(OC)c2)c(-c2ccnc(Nc3cc(OC)c(OC4CCN(CCS(C)(=O)=O)CC4)c(OC)c3)n2)o1 [Example 131] | 500 to 5000 | 500 to 5000 | < 500 | 500 to 5000 | < 100 | < 500 |
| COc1cc(C)cc(-c2nc(C(C)C)oc2-c2ccnc(Nc3ccc(N4CCN(CCS(C)(=O)=O)CC4)c(F)c3)n2)c1 [Example 102] | < 500 | 500 to 5000 | < 500 | 500 to 5000 | < 100 | < 500 |
| CCNc1nc(-c2ccc3c(c2)OCO3)c(-c2ccnc(Nc3ccc(N4CCN(C(C)=O)CC4)nc3)n2)s1 [Example 53, N-[6-(4-Acetyl-1-piperazinyl)-3-pyridinyl]-4-[4-(1,3-benzodioxol-5-yl)-2-(ethylamino)-1,3-thiazol-5-yl]-2-pyrimidinamine] | < 500 | 500 to 5000 | < 500 | < 500 | < 100 | < 500 |
| COCCN1CCN(c2ccc(Nc3nccc(-c4sc(NC5CC5)nc4-c4cc(OC)cc(OC)c4)n3)cn2)CC1 [Example 18, 4-[4-[3,5-Bis(methyloxy)phenyl]-2-(cyclopropylamino)-1,3-thiazol-5-yl]-N-(6-{4-[2-(methyloxy)ethyl]-1-piperazinyl}-3-pyridinyl)-2-pyrimidinamine] | < 500 | < 500 | < 500 | < 500 | < 100 | < 500 |
| COc1cc(OC)cc(-c2nc(Nc3ccccc3)sc2-c2ccnc(Nc3ccc(OC4CCN(CCS(C)(=O)=O)CC4)c(F)c3)n2)c1 [Example 23, 4-[4-[3,5-Bis(methyloxy)phenyl]-2-(phenylamino)-1,3-thiazol-5-yl]-N-[3-fluoro-4-({1-[2-(methylsulfonyl)ethyl]-4-piperidinyl}oxy)phenyl]-2-pyrimidinamine hydrochloride] | < 500 | 500 to 5000 | < 500 | 500 to 5000 | < 100 | 500 to 5000 |
| CCNc1nc(-c2cc(OC)cc(OC)c2)c(-c2ccnc(Nc3ccc(N4CCN(S(C)(=O)=O)CC4)nc3)n2)s1 [Example 2, 4-[4-[3,5-bis(methyloxy)phenyl]-2-(ethylamino)-1,3-thiazol-5-yl]-N-{6-[4-(methylsulfonyl)-1-piperazinyl]-3-pyridinyl}-2-pyrimidinamine] | < 500 | < 500 | < 500 | < 500 | < 100 | < 500 |
| CCNc1nc(-c2cc(OC)cc(OC)c2)c(-c2ccnc(Nc3ccc(OCCN4CCOCC4)c(F)c3)n2)s1 [Example 13, 4-[4-[3,5-Bis(methyloxy)phenyl]-2-(ethylamino)-1,3-thiazol-5-yl]-N-(3-fluoro-4-{[2-(4-morpholinyl)ethyl]oxy}phenyl)-2-pyrimidinamine] | < 500 | 500 to 5000 | < 500 | 500 to 5000 | < 100 | 500 to 5000 |
| CCNc1nc(-c2cc(C)cc(OC)c2)c(-c2ccnc(Nc3ccc4c(c3)CS(=O)(=O)C4)n2)s1 [Example 14, N-(2,2-Dioxido-1,3-dihydro-2-benzothien-5-yl)-4-{2-(ethylamino)-4-[3-methyl-5-(methyloxy)phenyl]-1,3-thiazol-5-yl}-2-pyrimidinamine] | < 500 | 500 to 5000 | < 500 | < 500 | < 100 | < 500 |
